Converted amounts (≈) assume the structure as drawn.

Common to all, as to test: MIC, solid dilution method
One assay has as its system E. ae 14186. The format is cell-based, Enterobacter aerogenes. The following applies: Klebsiella aerogenes; E. ae 14186; MHA agar, 37° C., 16-20 hours; read-out: MIC. As for the experimental part: (§1) The above-mentioned glycerol-preserved strains were taken out from the −80° C. refrigerator, streaked and inoculated on MHA plates, labeled, and cultured overnight in a 37° C. incubator.
(§2) The inoculum was prepared directly from bacterial suspension, and several recovered colonies were picked and directly prepared into a bacterial suspension with a turbidity of No. 0.5 McFarland units in normal saline, and a 10-fold dilution was made during inoculation.
(§3) 6 bottles of MHA culture medium 500 mL/bottle were prepared, and the pH was adjusted to 7.2-7.4, sterilized at 121° C. for 15 min, and the medium was placed in a 55° C. water bath to keep warm.
(§4) Sterile blank petri dishes were taken, and marked with each FL drug/concentration according to 2-fold dilution, and 10 concentrations of each drug starting from 8 μg/mL were tested.
(§5) […]; 20 mL was aspirated and added to a petri dish consistent with the mark, and then 20 mL of MHA culture medium was added to the rest of the drug-containing culture medium, mixed evenly, that is, the 2-fold diluted drug-containing culture medium; 20 mL was aspirated and added to the petri dish consistent with the mark, and then diluted to the 10th concentration and the […] respectively by repeating the above-mentioned steps, and then poured into the petri dish.
(§6) 4 bacterial control petri dishes without drug were prepared at the same time as a control.
(§7) The positioning needle and the inoculation needle were installed according to the order of placement of the colony on the inoculation plate. After inoculation, a bacterial solution circle was formed on the petri dish. After the bacterial solution was absorbed by the agar, the petri dish was placed in an incubator at 37° C. for overnight incubation (16-20 hours), and then taken out.
(§8) The minimum inhibitory concentrations of the compounds against the CRE and CSE strains were determined by the solid dilution method, and the results are shown in Tables 3 and 4.

The next assay deals with E. coli 11256. The format is cell-based. The following applies: Escherichia coli; E. coli 11256; MHA agar, 37° C., 16-20 hours; read-out: MIC. How it is done: as §1, §2, §3, §4, §5, §6, §7, §8
The test system of a further assay is Escherichia coli 11119. The format is cell-based. The following applies: E. coli 11119, CRE clinical isolate, MHA agar, 37° C., 16-20 hours, read-out: MIC. As for the experimental part:
as §1, §2, §3, §4, §5, §6, §7, §8

For another assay, the system named is Escherichia coli 13897. The format is cell-based. The following applies: E. coli 13897, CRE clinical isolate, MHA agar, 37° C., 16-20 hours, read-out: MIC. As for the experimental part: as §1, §2, §3, §4, §5, §6, §7, §8
The next assay has as its system Escherichia coli 14828. The format is cell-based. The following applies: E. coli 14828, CRE clinical isolate, MHA agar, 37° C., 16-20 hours, read-out: MIC. How it is done: as §1, §2, §3, §4, §5, §6, §7, §8
The subject of another assay is Klebsiella oxytoca 12391. The format is cell-based. The following applies: K. ox 12391, CRE clinical isolate, MHA agar, 37° C., 16-20 hours, read-out: MIC. As for the experimental part:
as §1, §2, §3, §4, §5, §6, §7, §8

In the next assay the test system is Klebsiella oxytoca 14151. The format is cell-based. The following applies: K. ox 14151, CRE clinical isolate, MHA agar, 37° C., 16-20 hours, read-out: MIC. How it is done: as §1, §2, §3, §4, §5, §6, §7, §8
A further assay relates to Klebsiella oxytoca 14153. The format is cell-based. The following applies: K. ox 14153, CRE clinical isolate, MHA agar, 37° C., 16-20 hours, read-out: MIC. As for the experimental part:
as §1, §2, §3, §4, §5, §6, §7, §8

For the next assay, the system named is Klebsiella oxytoca 6777. The format is cell-based. The following applies: K. ox 6777, CRE clinical isolate, MHA agar, 37° C., 16-20 hours, read-out: MIC. As for the experimental part:
as §1, §2, §3, §4, §5, §6, §7, §8

For assay [1], the system named is Escherichia coli ATCC25922. The format is cell-based. The following applies: E. coli ATCC25922, standard strain, MHA agar, 37° C., 16-20 hours, read-out: MIC. How it is done: (§9) (1) Standard strains: Escherichia coli BAA-2452, Escherichia coli ATCC25922, Klebsiella pneumoniae BAA-1705; all purchased from ATCC.
as §1, §2, §3, §4, §5, §6, §7, §8

Assay [2] has as its system Escherichia coli BAA-2452. The format is cell-based. The following applies: BAA2452, E. coli BAA-2452, standard strain, MHA agar, 37° C., 16-20 hours, read-out: MIC. As for the experimental part: as §9, §1, §2, §3, §4, §5, §6, §7, §8
Assay [3] has as its system Klebsiella pneumoniae BAA-1705. The format is cell-based. The following applies: BAA1705, K.p BAA-1705, standard strain, MHA agar, 37° C., 16-20 hours, read-out: MIC. As for the experimental part:
as §9, §1, §2, §3, §4, §5, §6, §7, §8

The test system of assay [4] is Klebsiella pneumoniae 11544. The format is cell-based. The following applies: K.p 11544, CRE clinical isolate, MHA agar, 37° C., 16-20 hours, read-out: MIC. How it is done:
(§10) (2) Clinical isolated strains: CRE Klebsiella pneumoniae 5846, 11544, 12559, 13249 and CSE Klebsiella pneumoniae 8733, a total of 5 strains;
as §1, §2, §3, §4, §5, §6, §7, §8

The test system of assay [5] is Klebsiella pneumoniae 12559. The format is cell-based. The following applies: K.p 12559, CRE clinical isolate, MHA agar, 37° C., 16-20 hours, read-out: MIC. As for the experimental part:
as §10, §1, §2, §3, §4, §5, §6, §7, §8

Assay [6] has as its system Klebsiella pneumoniae 13249. The format is cell-based. The following applies: K.p 13249, CRE clinical isolate, MHA agar, 37° C., 16-20 hours, read-out: MIC. How it is done:
as §10, §1, §2, §3, §4, §5, §6, §7, §8

Assay [7] has as its system Klebsiella pneumoniae 5846. The format is cell-based. The following applies: K.p 5846, CRE clinical isolate, MHA agar, 37° C., 16-20 hours, read-out: MIC. As for the experimental part: as §10, §1, §2, §3, §4, §5, §6, §7, §8
In assay [8] the test system is Klebsiella pneumoniae 8733. The format is cell-based. The following applies: K.p 8733, CSE clinical isolate, MHA agar, 37° C., 16-20 hours, read-out: MIC. How it is done: as §10, §1, §2, §3, §4, §5, §6, §7, §8
Assay [9] has as its system Acinetobacter baumannii 6383. The format is cell-based. The following applies: A.B 6383, CRE clinical isolate, MHA agar, 37° C., 16-20 hours, read-out: MIC. How it is done: (§11) CRE Acinetobacter baumannii 8476, 6383, a total of 2 strains; CRE Serratia marcescens 14541, a total of 1 strain; all collected in the Department of Infectious Diseases, West China Hospital, Chengdu, Sichuan Province, and kept in our laboratory.
as §1, §2, §3, §4, §5, §6, §7, §8

Assay [10] has as its system Acinetobacter baumannii 8476. The format is cell-based. The following applies: A.B 8476, CRE clinical isolate, MHA agar, 37° C., 16-20 hours, read-out: MIC. As for the experimental part: as §11, §1, §2, §3, §4, §5, §6, §7, §8
The test system of assay [11] is Serratia marcescens 14541. The format is cell-based. The following applies: Sma 14541, CRE clinical isolate, MHA agar, 37° C., 16-20 hours, read-out: MIC. As for the experimental part:
as §11, §1, §2, §3, §4, §5, §6, §7, §8

Broadly, the MIC is the lowest concentration found to suppress growth. For `CC1(C)[C@H](NC(=O)/C(=N\O[C@@H](COc2ccc3c(c2)CN(C(=N)NOCCN)C3)C(=O)O)c2csc(N)n2)C(=O)N1OS(=O)(=O)O` [Compound 43], the MIC with E. ae 14186 is 1 µg/mL (≈ 1.46 µM); in the assay on E. coli 11256 it was 0.125 µg/mL (≈ 0.182 µM); with Escherichia coli 11119 it was more than 8 µg/mL; in the assay with Escherichia coli 13897 it was 0.25 µg/mL (≈ 0.365 µM); in the assay with Escherichia coli 14828, 0.5 µg/mL (≈ 0.729 µM); in the assay with Klebsiella oxytoca 12391, 1 µg/mL (≈ 1.46 µM). For the same compound, the MIC was 1 µg/mL (≈ 1.46 µM) with Klebsiella oxytoca 14151; 1 µg/mL (≈ 1.46 µM) in the assay with Klebsiella oxytoca 14153; 1 µg/mL (≈ 1.46 µM) in the assay on Klebsiella oxytoca 6777; 0.06 µg/mL (≈ 0.0875 µM) in assay [1]; 0.5 µg/mL (≈ 0.729 µM) in assay [2]; 1 µg/mL (≈ 1.46 µM) in assay [3]. Also, the MIC in assay [4] is more than 8 µg/mL; in [5], 0.5 µg/mL (≈ 0.729 µM); in [6] it was more than 8 µg/mL; in assay [7], 0.5 µg/mL (≈ 0.729 µM); in assay [8], 0.25 µg/mL (≈ 0.365 µM); in [9], more than 8 µg/mL. In addition, the MIC in assay [10] was 8 µg/mL (≈ 11.7 µM); in assay [11] it was more than 8 µg/mL.
Consider `CC1(C)[C@H](NC(=O)/C(=N\O[C@@H](COc2ccc3c(c2)CN(C(=N)NCCN)C3)C(=O)O)c2csc(N)n2)C(=O)N1OS(=O)(=O)O` [Compound 44], for which the MIC in the assay on E. ae 14186 worked out at 0.25 µg/mL (≈ 0.373 µM); in the assay with E. coli 11256, 0.03 µg/mL (≈ 0.0448 µM); with Escherichia coli 11119, 4 µg/mL (≈ 5.97 µM); in the assay on Escherichia coli 13897, 0.125 µg/mL (≈ 0.187 µM); in the assay with Escherichia coli 14828, 0.125 µg/mL (≈ 0.187 µM); in the assay on Klebsiella oxytoca 12391, 0.25 µg/mL (≈ 0.373 µM). In addition, the MIC with Klebsiella oxytoca 14151 was 0.25 µg/mL (≈ 0.373 µM); in the assay with Klebsiella oxytoca 14153, 0.25 µg/mL (≈ 0.373 µM); in the assay on Klebsiella oxytoca 6777, 0.25 µg/mL (≈ 0.373 µM); in assay [1], less than 0.015 µg/mL; in assay [2], 0.25 µg/mL (≈ 0.373 µM); in assay [3], 0.25 µg/mL (≈ 0.373 µM). Also, the MIC was 8 µg/mL (≈ 11.9 µM) in [4]; 0.125 µg/mL (≈ 0.187 µM) in assay [5]; 8 µg/mL (≈ 11.9 µM) in [6]; 0.125 µg/mL (≈ 0.187 µM) in [7]; 0.06 µg/mL (≈ 0.0896 µM) in assay [8]; 2 µg/mL (≈ 2.99 µM) in [9]. Also, the MIC in [10] was 1 µg/mL (≈ 1.49 µM); in assay [11] it was more than 8 µg/mL.
Turning to `CC1(C)[C@H](NC(=O)/C(=N\O[C@@H](COc2ccc3c(c2)CN(/C(=N\[C@@H]2CCCNC2)N[C@@H]2CCCNC2)C3)C(=O)O)c2csc(N)n2)C(=O)N1OS(=O)(=O)O` [Compound 46], the MIC with E. ae 14186 was determined as 0.25 µg/mL (≈ 0.315 µM); in the assay on E. coli 11256, 0.03 µg/mL (≈ 0.0378 µM); in the assay with Escherichia coli 11119 it was 4 µg/mL (≈ 5.04 µM); in the assay with Escherichia coli 13897, 0.125 µg/mL (≈ 0.158 µM); in the assay with Escherichia coli 14828 it was 0.125 µg/mL (≈ 0.158 µM); in the assay with Klebsiella oxytoca 12391 it was 0.25 µg/mL (≈ 0.315 µM). In addition, the MIC with Klebsiella oxytoca 14151 is 0.25 µg/mL (≈ 0.315 µM); with Klebsiella oxytoca 14153, 0.25 µg/mL (≈ 0.315 µM); in the assay with Klebsiella oxytoca 6777 it was 0.25 µg/mL (≈ 0.315 µM); in assay [1] it was less than 0.015 µg/mL; in assay [2] it was 0.25 µg/mL (≈ 0.315 µM); in assay [3], 0.5 µg/mL (≈ 0.631 µM). For the same compound, the MIC in assay [4] was 8 µg/mL (≈ 10.1 µM); in [5] it was 0.25 µg/mL (≈ 0.315 µM); in assay [6], 8 µg/mL (≈ 10.1 µM); in [7], 0.125 µg/mL (≈ 0.158 µM); in [8] it was 0.125 µg/mL (≈ 0.158 µM); in assay [9] it was 4 µg/mL (≈ 5.04 µM). Also, the MIC in [10] was 4 µg/mL (≈ 5.04 µM); in assay [11], more than 8 µg/mL.

(Values after patent US12491180B2, “Application of compound in treating pneumonia” (SHENZHEN OPTIMUM BIOLOGICAL TECHNOLOGY CO., LTD., priority 2019, dated 2025).)
